This note sets out measurements from ChEMBL document CHEMBL1145625, “QSAR study of mosquito repellents from terpenoid with a six-member-ring” (2008).

The test system of the assay is Culex pipiens. Kind of assay: Mosquito repellent activity in white mouse assessed as ratio of number of biting mosquito in treated to untreated control at 1.5 hrs. It counts as functional.
As for `CC1(C)C2CC=C(CCOC=O)C1C2` (stereo not given), the Ratio turned out to be 56.1.
As for `C=C(C)C1CC=C(CCOC(C)=O)CC1` (stereo not given), the figure is 58.5; as for `CCC(CCC1C2CCC(C2)C1(C)C)C(C)OC(C)=O` (stereo not given), 51.5; as for `CC1(C)C2CC3OC3(C)C1C2` (stereo not given), 37.8.
On to `CC(=O)OC1CC(C)CCC1C(C)C` (stereo not given), for which the Ratio is listed as 38.7.
As for `CC1=CCC(C(C)(C)O)CC1OC=O` (stereo not given), the figure is 90; as for `CCC(CCCC1C2CCC(C2)C1(C)C)OC(C)=O` (stereo not given), 50.2.
As for `CCC(=O)OCCC1C2CCC(C2)C1(C)C` (stereo not given), the figure is 56.8; as for `CC1CCC(C(C)C)C(O)C1` (stereo not given) [MENTHOL], 53.
For `CC(=O)OCCC1=CCC2CC1C2(C)C` (stereo not given), the Ratio amounted to 60.8.
Consider `COCCC1=CCC2CC1C2(C)C` (stereo not given), for which the Ratio is recorded as 52.1.
As for `CCOCCC1=CCC2CC1C2(C)C` (stereo not given), the figure is 62.2; as for `CCCC(CCCC1C2CCC(C2)C1(C)C)OC(C)=O` (stereo not given), 51.7.
For `C=C(C)C1CC=C(CCOC(=O)CC)CC1` (stereo not given), the Ratio was determined as 63.6.
Regarding `CCC(=O)OCCC1=CCC2CC1C2(C)C` (stereo not given), the Ratio amounted to 64.4.
In the case of `CC(=O)OC1CC(C(C)(C)O)CC=C1C` (stereo not given), the Ratio is 81.
Turning to `CC(=O)OCCC1C2CCC(C2)C1(C)C` (stereo not given), the Ratio amounted to 53.
As for `CCCOCCC1=CCC2CC1C2(C)C` (stereo not given), the figure is 72.5; as for `CCC(=O)OC1CC(C)CCC1C(C)C` (stereo not given), 40.5; as for `CC1(C)C2CC=C(CCO)C1C2` (stereo not given) [Nopol], 69.
